Assay results reported in article PMC6271825, “Synthesis and Cytotoxic Activity Evaluation of Novel Arylpiperazine Derivatives on Human Prostate Cancer Cell Lines” (Molecules, 2014).
Structures can show the parent of a compound that is named as a salt.

Which melting point does the source give for COc1ccc(N2CCN(CCc3ccc(COc4ccc5c(c4)OCO5)cc3)CC2)cc1 (as salt: HCl) [Compound 13, 1-(2-(4-((Benzo[d][1,3]dioxol-5-yloxy)methyl)phenyl)ethyl)-4-(4-methoxyphenyl)piperazine] here?
Its melting point is 174 to 175 °C.

With Fc1ccc(N2CCN(CCc3ccc(COc4ccc5c(c4)OCO5)cc3)CC2)cc1 (as salt: HCl) [Compound 16, 1-(2-(4-((Benzo[d][1,3]dioxol-5-yloxy)methyl)phenyl)ethyl)-4-(4-fluorophenyl)piperazine] as the compound, how does the melting point read?
Its melting point is 196 to 197 °C.

With Cc1ccc(N2CCN(CCc3ccc(COc4ccc5c(c4)OCO5)cc3)CC2)cc1 (as salt: HCl) [Compound 10, 1-(2-(4-((Benzo[d][1,3]dioxol-5-yloxy)methyl)phenyl)ethyl)-4-p-tolylpiperazine] as the compound, how does the melting point read?
Its melting point is 184 to 185 °C.

Which melting point does the source give for COc1ccc(Cl)cc1N1CCN(CCc2ccc(COc3ccc4c(c3)OCO4)cc2)CC1 (as salt: HCl) [Compound 23, 1-(2-(4-((Benzo[d][1,3]dioxol-5-yloxy)methyl)phenyl)ethyl)-4-(5-chloro-2-methoxyphenyl)piperazine] here?
The melting point was 177 to 178 °C.

With OC1(c2ccccc2)CCN(CCc2ccc(COc3ccc4c(c3)OCO4)cc2)CC1 (as salt: HCl) [Compound 29, 1-(2-(4-((Benzo[d][1,3]dioxol-5-yloxy)methyl)phenyl)ethyl)-4-phenylpiperidin-4-ol] as the compound, how does the melting point read?
The melting point was 194 to 195 °C.

For COc1cccc(N2CCN(CCc3ccc(COc4ccc5c(c4)OCO5)cc3)CC2)c1 (as salt: HCl) [Compound 14, 1-(2-(4-((Benzo[d][1,3]dioxol-5-yloxy)methyl)phenyl)ethyl)-4-(3-methoxyphenyl)piperazine], which melting point is on record?
Its melting point is 171 to 172 °C.

With c1ccc(C2CCN(CCc3ccc(COc4ccc5c(c4)OCO5)cc3)CC2)cc1 (as salt: HCl) [Compound 28, 1-(2-(4-((Benzo[d][1,3]dioxol-5-yloxy)methyl)phenyl)ethyl)-4-phenylpiperidine] as the compound, how does the melting point read?
Its melting point is 183 to 184 °C.

Which melting point does the source give for Brc1ccc(N2CCN(CCc3ccc(COc4ccc5c(c4)OCO5)cc3)CC2)cc1 (as salt: HCl) [Compound 24, 1-(2-(4-((Benzo[d][1,3]dioxol-5-yloxy)methyl)phenyl)ethyl)-4-(4-bromophenyl)piperazine] here?
The melting point was 173 to 174 °C.

Which melting point does the source give for Fc1ccccc1N1CCN(CCc2ccc(COc3ccc4c(c3)OCO4)cc2)CC1 (as salt: HCl) [Compound 15, 1-(2-(4-((Benzo[d][1,3]dioxol-5-yloxy)methyl)phenyl)ethyl)-4-(2-fluorophenyl)piperazine] here?
The melting point was 187 to 188 °C.

With Fc1ccc(N2CCN(CCc3ccc(COc4ccc5c(c4)OCO5)cc3)CC2)c(F)c1 (as salt: HCl) [Compound 17, 1-(2-(4-((Benzo[d][1,3]dioxol-5-yloxy)methyl)phenyl)ethyl)-4-(2,4-difluorophenyl)piperazine] as the compound, how does the melting point read?
The melting point was 169 to 170 °C.

With Clc1ccc(N2CCN(CCc3ccc(COc4ccc5c(c4)OCO5)cc3)CC2)cc1 (as salt: HCl) [Compound 20, 1-(2-(4-((Benzo[d][1,3]dioxol-5-yloxy)methyl)phenyl)ethyl)-4-(4-chlorophenyl)piperazine] as the compound, how does the melting point read?
Its melting point is 164 to 165 °C.

For FC(F)(F)c1ccccc1N1CCN(CCc2ccc(COc3ccc4c(c3)OCO4)cc2)CC1 (as salt: HCl) [Compound 25, 1-(2-(4-((Benzo[d][1,3]dioxol-5-yloxy)methyl)phenyl)ethyl)-4-(2-(trifluoromethyl)phenyl)piperazine], which melting point is on record?
Its melting point is 171 to 172 °C.

With c1ccc(N2CCN(CCc3ccc(COc4ccc5c(c4)OCO5)cc3)CC2)nc1 (as salt: HCl) [Compound 7, 1-(2-(4-((Benzo[d][1,3]dioxol-5-yloxy)methyl)phenyl)ethyl)-4-(pyridin-2-yl)piperazine] as the compound, how does the melting point read?
Its melting point is 185 to 186 °C.

With c1ccc(N2CCN(CCc3ccc(COc4ccc5c(c4)OCO5)cc3)CC2)cc1 (as salt: HCl) [Compound 5, 1-(2-(4-((Benzo[d][1,3]dioxol-5-yloxy)methyl)phenyl)ethyl)-4-phenylpiperazine] as the compound, how does the melting point read?
Its melting point is 195 to 196 °C.

With Cc1ccccc1N1CCN(CCc2ccc(COc3ccc4c(c3)OCO4)cc2)CC1 (as salt: HCl) [Compound 9, 1-(2-(4-((Benzo[d][1,3]dioxol-5-yloxy)methyl)phenyl)ethyl)-4-o-tolylpiperazine] as the compound, how does the melting point read?
The melting point was 202 to 203 °C.

Which melting point does the source give for Cc1cccc(N2CCN(CCc3ccc(COc4ccc5c(c4)OCO5)cc3)CC2)c1 (as salt: HCl) [Compound 11, 1-(2-(4-((Benzo[d][1,3]dioxol-5-yloxy)methyl)phenyl)ethyl)-4-m-tolylpiperazine] here?
The melting point was 171 to 172 °C.

Which melting point does the source give for Clc1ccccc1N1CCN(CCc2ccc(COc3ccc4c(c3)OCO4)cc2)CC1 (as salt: HCl) [Compound 19, 1-(2-(4-((Benzo[d][1,3]dioxol-5-yloxy)methyl)phenyl)ethyl)-4-(2-chlorophenyl)piperazine] here?
Its melting point is 176 to 177 °C.

Which melting point does the source give for Clc1cccc(N2CCN(CCc3ccc(COc4ccc5c(c4)OCO5)cc3)CC2)c1Cl (as salt: HCl) [Compound 22, 1-(2-(4-((Benzo[d][1,3]dioxol-5-yloxy)methyl)phenyl)ethyl)-4-(2,3-dichlorophenyl)piperazine] here?
Its melting point is 177 to 178 °C.

Which melting point does the source give for N#Cc1ccc(N2CCN(CCc3ccc(COc4ccc5c(c4)OCO5)cc3)CC2)c(F)c1 (as salt: HCl) [Compound 18, 4-(4-(2-(4-((Benzo[d][1,3]dioxol-5-yloxy)methyl)phenyl)ethyl)piperazin-1-yl)-3-fluorobenzonitrile] here?
Its melting point is 182 to 183 °C.

Which melting point does the source give for c1ccc(CN2CCN(CCc3ccc(COc4ccc5c(c4)OCO5)cc3)CC2)cc1 (as salt: HCl) [Compound 6, 1-(2-(4-((Benzo[d][1,3]dioxol-5-yloxy)methyl)phenyl)ethyl)-4-benzylpiperazine] here?
The melting point was 177 to 178 °C.

For FC(F)(F)c1ccc(N2CCN(CCc3ccc(COc4ccc5c(c4)OCO5)cc3)CC2)cc1 (as salt: HCl) [Compound 26, 1-(2-(4-((Benzo[d][1,3]dioxol-5-yloxy)methyl)phenyl)ethyl)-4-(4-(trifluoromethyl)phenyl)piperazine], which melting point is on record?
The melting point was 176 to 177 °C.

For COc1ccccc1N1CCN(CCc2ccc(COc3ccc4c(c3)OCO4)cc2)CC1 (as salt: HCl) [Compound 12, 1-(2-(4-((Benzo[d][1,3]dioxol-5-yloxy)methyl)phenyl)ethyl)-4-(2-methoxyphenyl)piperazine], which melting point is on record?
The melting point was 173 to 174 °C.

Which melting point does the source give for CC(=O)c1ccc(N2CCN(CCc3ccc(COc4ccc5c(c4)OCO5)cc3)CC2)cc1 (as salt: HCl) [Compound 27, 1-(4-(4-(2-(4-((Benzo[d][1,3]dioxol-5-yloxy)methyl)phenyl)ethyl)piperazin-1-yl)phenyl)ethanone] here?
The melting point was 183 to 184 °C.

With Clc1cccc(N2CCN(CCc3ccc(COc4ccc5c(c4)OCO5)cc3)CC2)c1 (as salt: HCl) [Compound 21, 1-(2-(4-((Benzo[d][1,3]dioxol-5-yloxy)methyl)phenyl)ethyl)-4-(3-chlorophenyl)piperazine] as the compound, how does the melting point read?
Its melting point is 177 to 178 °C.

With c1cnc(N2CCN(CCc3ccc(COc4ccc5c(c4)OCO5)cc3)CC2)nc1 (as salt: HCl) [Compound 8, 2-(4-(2-(4-((Benzo[d][1,3]dioxol-5-yloxy)methyl)phenyl)ethyl)piperazin-1-yl)pyrimidine] as the compound, how does the melting point read?
Its melting point is 181 to 182 °C.
